Assay results reported in PMC12431657, “Discovery and mechanistic insights of dibenzoylmethane as a broad spectrum inhibitor of coronavirus” (PLOS Pathogens, 2025).
Where a name gives a salt, the structure may show the parent alone.

Key:
HCoV-229E = tested on: HCoV-229E; design: species or system Huh-7; HTS, protection from HCoV-229E induced cell death, luminescent cell viability (CellCounting-Lite 2.0), inhibition rate; settings: 24 h, 10 µM; inhibitor
HCoV-OC43 [1] = tested on: HCoV-OC43; design: species or system RD; HTS, protection from HCoV-OC43 induced cell death, luminescent cell viability (CellCounting-Lite 2.0), inhibition rate; settings: 24 h, 10 µM; inhibitor
HCoV-OC43 [2] = experiment: Antiviral activity in vitro, qRT-PCR, HCoV-OC43 in RD cells; assay type: cell-based; settings: HCoV-OC43; cell line not printed (S6C Fig)

| Compound | 229E Inhibition rate (HCoV-229E) | OC43 Inhibition rate (HCoV-OC43 [1]) | suppression of viral replication (HCoV-OC43 [2]) |
| --- | --- | --- | --- |
| C[C@H]1CC[C@@H]2[C@@H](C)[C@H]3[C@H](C[C@H]4[C@@H]5CC=C6C[C@@H](O[C@@H]7O[C@H](CO)[C@H](O)[C@H](O[C@@H]8O[C@H](CO)[C@@H](O)[C@H](O)[C@H]8O)[C@H]7O[C@@H]7O[C@@H](C)[C@H](O)[C@@H](O)[C@H]7O)CC[C@]6(C)[C@H]5CC[C@]34C)N2C1 [α-Solanine] | 9.3% | 23.1% | – |
| CO[C@H]1CC=C2CCN3CCC4=C(CC(=O)OC4)[C@]23C1 [Dihydro-β-erythroidine (hydrobromide)] | 0% | -0.7% | – |
| C=C[C@@H](O)C#CC#C[C@@H](O)/C=C\CCCCCCC [Falcarindiol] | 34% | -0.3% | – |
| Cc1nccc2c1[nH]c1ccccc12 [Harmane] | 0% | 0.2% | – |
| N#C[C@@H](O[C@@H]1O[C@H](CO[C@@H]2O[C@H](CO)[C@@H](O)[C@H](O)[C@H]2O)[C@@H](O)[C@H](O)[C@H]1O)c1ccccc1 [Neoamygdalin] | 63.2% | -0.4% | – |
| CC(C)CCC(=O)c1ccoc1 [Perilla ketone] | 9.1% | 2.5% | – |
| CC(=O)O[C@H]1[C@H]2O[C@]23[C@@H]2CC[C@]4(O)C[C@@H](O)CC[C@]4(C)[C@H]2CC[C@]3(C)[C@H]1c1ccc(=O)oc1 [Cinobufotalin] | 9.3% | 11.4% | – |
| C/C=C/c1cc(OC)c(OC)cc1OC [alpha-Asarone] | 14.4% | 1.2% | – |
| COC[C@@H]1CCCN1S(=O)(=O)c1ccc2c(c1)C(=O)C(=O)N2 [caspase-3/7 inhibitor I, (S)-(+)-5-[1-(2-methoxymethylpyrrolidinyl)sulfonyl]isatin, reference compound] | – | – | not effective |
| C[C@H]1CC[C@@H]2N(C1)C[C@H]1[C@@H]3C[C@H]4[C@@H](CC(=O)[C@H]5C[C@@H](O)CC[C@@]54C)[C@@H]3CC[C@H]1[C@]2(C)O [Sipeimine] | 43.3% | -1% | – |
| C[C@@H]1O[C@@H](O[C@@H]2C=C3CC[C@@H]4[C@H](CC[C@]5(C)[C@@H](c6ccc(=O)oc6)CC[C@]45O)[C@@]3(C)CC2)[C@H](O)[C@H](O)[C@H]1O [Proscillaridin A] | 21.1% | -0.6% | – |
| CN1C(=O)[C@]23CC4=CC=C[C@H](O)[C@H]4N2C(=O)[C@@]1(CO)SS3 [Gliotoxin] | 0.7% | -0.7% | – |
| COc1cc(CNC(=O)CCCCCCC(C)C)ccc1O [Dihydrocapsaicin] | 7.8 | 7.9 | – |
| C[C@H]1CCC2N(C1)C[C@H]1C3CC4[C@@H](CC(=O)C5C[C@@H](O)CC[C@@]54C)C3CCC1[C@]2(C)O (stereo partly drawn) [Peiminine] | 21.8% | 1% | – |
| C/C=C\c1cc(OC)c(OC)cc1OC [Beta-asarone] | 28.9% | 0.1% | – |
| C[C@H]1CC[C@@H]2N(C1)C[C@H]1[C@@H]3C[C@H]4[C@@H](CC(=O)[C@H]5C[C@H](O)CC[C@@]54C)[C@@H]3CC[C@H]1[C@]2(C)O [Yubeinine] | 8.8% | 0% | – |
| CC(=O)C1=C(O)[C@@H]2[C@H]3c4c[nH]c5cccc(c45)C[C@H]3C(C)(C)N2C1=O [Cyclopiazonic acid] | 0% | 0% | – |
| CC1=C2C(=O)[C@H]3[C@@H](CC=C4C[C@@H](O)CC[C@@]43C)[C@@H]2CC[C@]12O[C@@H]1C[C@H](C)CN[C@H]1[C@H]2C [Jervine] | 3.8% | -0.3% | – |
| C=C[C@]12CN(C)[C@@H]3[C@H]4CO[C@H](C[C@H]41)[C@]1(C(=O)Nc4ccccc41)[C@@H]32 [Gelsemine] | 21.7% | -0.3% | – |
| CC[C@H]1CN2CCc3cc(OC)c(OC)cc3[C@@H]2C[C@@H]1C[C@H]1NCCc2cc(O)c(OC)cc21 [Cephaeline (dihydrochloride)] | 17.7% | 7.6% | – |
| O=C1C=C2C=C[C@@H]3C[C@@]2(O1)[C@H]1CCCCN31 [(-)-Securinine] | 43% | 38.4% | – |
| C[C@H]1CCC[C@@H](O)CCC/C=C/c2cc(O)cc(O)c2C(=O)O1 [β-Zearalenol] | 60.6 | 39.8 | – |
| O=C1C=C2C(=CCOC2O)O1 (stereo not drawn) [Patulin] | 3.7% | -3.1% | – |
